From PubChem BioAssay AID651948 (The Scripps Research Institute Molecular Screening Center, 2012)

Target: Heat shock 70 kDa protein 1A (Homo sapiens) (UniProt P0DMV8)
Test: PubChem AID 651948
Conditions: HeLa Hsp70 protein level, western blot, 8 h; at 10 µM; hits give high values

Chain of Heat shock 70 kDa protein 1A (Homo sapiens) (P0DMV8 whole entry, looked up): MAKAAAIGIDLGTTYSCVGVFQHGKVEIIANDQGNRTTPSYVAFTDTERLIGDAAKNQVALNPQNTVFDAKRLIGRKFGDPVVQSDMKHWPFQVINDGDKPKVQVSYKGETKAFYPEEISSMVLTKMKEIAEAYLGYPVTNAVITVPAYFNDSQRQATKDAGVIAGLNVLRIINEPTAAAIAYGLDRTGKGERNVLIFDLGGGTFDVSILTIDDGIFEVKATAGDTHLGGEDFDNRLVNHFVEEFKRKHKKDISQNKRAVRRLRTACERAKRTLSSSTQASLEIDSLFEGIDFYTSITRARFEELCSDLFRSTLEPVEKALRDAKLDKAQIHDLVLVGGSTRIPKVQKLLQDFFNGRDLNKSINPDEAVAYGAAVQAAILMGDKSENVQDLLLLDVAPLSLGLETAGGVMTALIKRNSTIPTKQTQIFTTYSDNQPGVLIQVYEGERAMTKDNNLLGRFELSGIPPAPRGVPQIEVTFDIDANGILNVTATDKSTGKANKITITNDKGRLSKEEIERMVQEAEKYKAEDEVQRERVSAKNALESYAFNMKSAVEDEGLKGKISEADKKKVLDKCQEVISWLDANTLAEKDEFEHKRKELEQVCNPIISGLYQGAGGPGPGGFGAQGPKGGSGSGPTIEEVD

With COc1ccc(/C=C/C=C2C(=O)NC(=O)NC2=O)cc1 the fold induction was 1.8.
